In PubChem BioAssay (NCI):
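GI50 = concentration required for 50% inhibition of growth. TGI denotes the concentration required for complete inhibition of growth.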

Tests used:
Assay in all cases: growth of human tumour cells (NCI), 384-well format
UACC-257 melanoma = tested on: UACC-257 melanoma
OVCAR-8 ovarian = tested on: OVCAR-8 ovarian
TK-10 renal = tested on: TK-10 renal
HT29 colon = tested on: HT29 colon
NCI-H322M lung = tested on: NCI-H322M lung
SN12C renal = tested on: SN12C renal
DU-145 prostate = tested on: DU-145 prostate
SNB-19 CNS = tested on: SNB-19 CNS
MCF7 breast = tested on: MCF7 breast
K-562 leukemia = tested on: K-562 leukemia
HCT-15 colon = tested on: HCT-15 colon
OVCAR-5 ovarian = tested on: OVCAR-5 ovarian
KM12 colon = tested on: KM12 colon
HOP-62 NSCLC = tested on: HOP-62 NSCLC
CAKI-1 renal = tested on: CAKI-1 renal
OVCAR-4 ovarian = tested on: OVCAR-4 ovarian
NCI-H226 lung = tested on: NCI-H226 lung
SF-268 CNS = tested on: SF-268 CNS
CCRF-CEM leukemia = tested on: CCRF-CEM leukemia
IGROV1 ovarian = tested on: IGROV1 ovarian
T-47D breast = tested on: T-47D breast
SK-MEL-28 melanoma = tested on: SK-MEL-28 melanoma
MALME-3M melanoma = tested on: MALME-3M melanoma
SK-OV-3 ovarian = tested on: SK-OV-3 ovarian
HS 578T breast = tested on: HS 578T breast
SF-295 CNS = tested on: SF-295 CNS
HOP-92 NSCLC = tested on: HOP-92 NSCLC
RXF 393 renal = tested on: RXF 393 renal
SK-MEL-5 melanoma = tested on: SK-MEL-5 melanoma
PC-3 prostate = tested on: PC-3 prostate
COLO 205 colon = tested on: COLO 205 colon
BT-549 breast = tested on: BT-549 breast
SR leukemia = tested on: SR leukemia
RPMI-8226 leukemia = tested on: RPMI-8226 leukemia
UACC-62 melanoma = tested on: UACC-62 melanoma
UO-31 renal = tested on: UO-31 renal
NCI/ADR-RES ovarian = tested on: NCI/ADR-RES ovarian
EKVX NSCLC = tested on: EKVX NSCLC
MDA-MB-435 melanoma = tested on: MDA-MB-435 melanoma
SNB-75 CNS = tested on: SNB-75 CNS
786-0 renal = tested on: 786-0 renal
M14 melanoma = tested on: M14 melanoma
HL-60(TB) leukemia = tested on: HL-60(TB) leukemia
MDA-MB-231 breast = tested on: MDA-MB-231 breast
SW-620 colon = tested on: SW-620 colon
NCI-H460 NSCLC = tested on: NCI-H460 NSCLC
A498 renal = tested on: A498 renal
ACHN renal = tested on: ACHN renal
MOLT-4 leukemia = tested on: MOLT-4 leukemia
SF-539 CNS = tested on: SF-539 CNS
NCI-H23 lung = tested on: NCI-H23 lung
NCI-H522 lung = tested on: NCI-H522 lung
MDA-MB-468 breast = tested on: MDA-MB-468 breast
OVCAR-3 ovarian = tested on: OVCAR-3 ovarian
LOX IMVI melanoma = tested on: LOX IMVI melanoma
HCC-2998 colon = tested on: HCC-2998 colon
A549 NSCLC = tested on: A549 NSCLC

## COc1cc2c(Oc3ccc4[nH]c(C)cc4c3F)ccnc2cc1OCC1(N)CC1
UACC-257 melanoma
  GI50: 427 nM
  TGI: 1290 nM
OVCAR-8 ovarian
  GI50: 1510 nM
  TGI: 3270 nM
TK-10 renal
  GI50: 1600 nM
  TGI: 3320 nM
HT29 colon
  GI50: 364 nM
  TGI: 1450 nM
NCI-H322M lung
  GI50: 1440 nM
  TGI: 3420 nM
SN12C renal
  GI50: 1120 nM
  TGI: 2860 nM
DU-145 prostate
  GI50: 2160 nM
  TGI: 7360 nM
SNB-19 CNS
  GI50: 821 nM
  TGI: 2970 nM
MCF7 breast
  GI50: 359 nM
  TGI: 7730 nM
K-562 leukemia
  GI50: 421 nM
  TGI: 1390 nM
HCT-15 colon
  GI50: 493 nM
  TGI: 1760 nM
OVCAR-5 ovarian
  GI50: 1920 nM
  TGI: 3870 nM
KM12 colon
  GI50: 474 nM
  TGI: 1740 nM
HOP-62 NSCLC
  GI50: 664 nM
  TGI: 2060 nM
CAKI-1 renal
  GI50: 881 nM
  TGI: 2310 nM
OVCAR-4 ovarian
  GI50: 543 nM
  TGI: 3180 nM
NCI-H226 lung
  GI50: 1110 nM
  TGI: 3020 nM
SF-268 CNS
  GI50: 683 nM
  TGI: 2070 nM
CCRF-CEM leukemia
  GI50: 722 nM
  TGI: 1880 nM
IGROV1 ovarian
  GI50: 1200 nM
  TGI: 4350 nM
T-47D breast
  GI50: 1600 nM
  TGI: 5360 nM
SK-MEL-28 melanoma
  GI50: 828 nM
  TGI: 2080 nM
MALME-3M melanoma
  GI50: 375 nM
  TGI: 1460 nM
SK-OV-3 ovarian
  GI50: 539 nM
  TGI: 1920 nM
HS 578T breast
  GI50: 294 nM
  TGI: 1040 nM
SF-295 CNS
  GI50: 346 nM
  TGI: 1250 nM
HOP-92 NSCLC
  GI50: 477 nM
  TGI: 1900 nM
RXF 393 renal
  GI50: 648 nM
  TGI: 2090 nM
SK-MEL-5 melanoma
  GI50: 416 nM
  TGI: 1320 nM
PC-3 prostate
  GI50: 809 nM
  TGI: 2290 nM
COLO 205 colon
  GI50: 1300 nM
  TGI: 3010 nM
BT-549 breast
  GI50: 383 nM
  TGI: 1190 nM
SR leukemia
  GI50: 182 nM
  TGI: 350 nM
RPMI-8226 leukemia
  GI50: 753 nM
  TGI: 1990 nM
UACC-62 melanoma
  GI50: 396 nM
  TGI: 1410 nM
UO-31 renal
  GI50: 1300 nM
  TGI: 2760 nM
NCI/ADR-RES ovarian
  GI50: 936 nM
  TGI: 2210 nM
EKVX NSCLC
  GI50: 867 nM
  TGI: 2850 nM
MDA-MB-435 melanoma
  GI50: 228 nM
  TGI: 497 nM
SNB-75 CNS
  GI50: 314 nM
  TGI: 1070 nM
786-0 renal
  GI50: 465 nM
  TGI: 1630 nM
M14 melanoma
  GI50: 519 nM
  TGI: 1660 nM
HL-60(TB) leukemia
  GI50: 240 nM
  TGI: 463 nM
MDA-MB-231 breast
  GI50: 1170 nM
  TGI: 3540 nM
SW-620 colon
  GI50: 541 nM
  TGI: 1950 nM
NCI-H460 NSCLC
  GI50: 714 nM
  TGI: 2030 nM
A498 renal
  GI50: 400 nM
  TGI: 1690 nM
ACHN renal
  GI50: 1160 nM
  TGI: 3440 nM
MOLT-4 leukemia
  GI50: 223 nM
  TGI: 419 nM
SF-539 CNS
  GI50: 270 nM
  TGI: 1140 nM
NCI-H23 lung
  GI50: 1030 nM
  TGI: 2520 nM
NCI-H522 lung
  GI50: 274 nM
  TGI: 672 nM
MDA-MB-468 breast
  GI50: 253 nM
  TGI: 567 nM
OVCAR-3 ovarian
  GI50: 278 nM
  TGI: 797 nM
LOX IMVI melanoma
  GI50: 705 nM
  TGI: 1990 nM
HCC-2998 colon
  GI50: 1370 nM
  TGI: 2850 nM
A549 NSCLC
  GI50: 1080 nM
  TGI: 3150 nM
